# Publication PMC5729930, “Bitopic fluorescent antagonists of the A2A adenosine receptor based on pyrazolo[4,3-e][1,2,4]triazolo[1,5-c]pyrimidin-5-amine functionalized congeners” (MedChemComm, 2017)
# “And” between values parts separate entries of the source, which are not always exact repeats. Identical values can stand only once.
# Experiments:
# A3AR = target: T1, A3AR (Homo sapiens, UniProt P0DMS8); test: Competition radioligand binding, hA3AR ([125I]I-AB-MECA); settings: [125I]I-AB-MECA 0.2 nM; for inhibition at 10 µM: percent inhibition at 10 μM, read-out: % inhib, A3
# T1 construct: expressed in transfected cells
# T1 sequence (P0DMS8 1-318): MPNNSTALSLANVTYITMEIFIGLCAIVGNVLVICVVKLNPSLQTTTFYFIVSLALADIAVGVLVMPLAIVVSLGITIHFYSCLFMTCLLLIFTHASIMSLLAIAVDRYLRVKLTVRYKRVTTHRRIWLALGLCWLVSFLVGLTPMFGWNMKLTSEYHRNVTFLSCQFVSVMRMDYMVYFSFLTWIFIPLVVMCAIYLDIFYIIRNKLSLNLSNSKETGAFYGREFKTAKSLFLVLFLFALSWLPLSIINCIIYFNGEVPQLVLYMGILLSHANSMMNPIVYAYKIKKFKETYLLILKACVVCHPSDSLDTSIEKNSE
# Experimental: (§1) The affinity of the amine congeners and other antagonists was measured using standard radioligand binding assays for hA1, A2A and A3ARs (Table 1).[1],[13],[14],[22] Membranes of human embryonic kidney (HEK)293 cells expressing the AR of interest were used in the assay. Primary amine congeners 6a–6d containing spacers of 2–5 methylenes were similar in terms of hA2AAR affinity (Ki 6–9 nM), with the butylamino congener 6c displaying the highest A2AAR selectivity in the series. The affinity of this compound for the hA3AR was determined to be 6.0 μM, with only slightly higher hA1AR affinity. Homologation to 6 methylenes in compound 6e lowered A2AAR affinity. […] No dependence of the affinity on the chain length was evident when comparing AlexaFluor647 conjugates 9 and 10. […]
# (§2) Radioligand binding assays: Cell membranes were prepared as reported.1
# (§3) Binding assays were carried out using standard radioligands and membrane preparations from HEK-293 cells stably expressing the human (h) A1, A2A or A3ARs or mouse (m) A1, A2A or A3ARs. The radioligands used were: A1AR, [3H]8-cyclopentyl-1,3-dipropylxanthine 14; A2AAR, [3H]2; A3AR, [125I]N6-(4-amino-3-iodobenzyl)adenosine-5′-N-methyluronamide 16. The radioligand for archival A2AAR affinity data presented in Table 1 was [3H]2-[p-(2-carboxyethyl)phenyl-ethylamino]-5′-N-ethylcarboxamidoadenosine 15. Nonspecific binding was determined using 10 µM 8-[4-[[[[(2-aminoethyl)amino]carbonyl]methyl]oxy]phenyl]-1,3-dipropylxanthine 17 (A1AR and A2AAR) or 10 µM adenosine-5′-N-ethyluronamide 18 (A3AR). HEK-293 cells expressing recombinant mA1, A2A, or A3AR […]
# (§4) Protein was determined as reported.2 In all the binding experiments, IC50 values and Ki values were calculated using GraphPad Prism software (San Diego, CA). Values are expressed as mean±SEM. […]
# (§5) Med. Chem. Comm., 2015, 6:555-563.
# (§6) 2. Bradford, M. M. A rapid and sensitive method for the quantitation of microgram quantities of protein utilizing the principle of protein -dye binding. Anal. Biochem. 1976, 72, 248-254.
# mA2AAR = target: T2, mA2AAR (Mus musculus, UniProt Q60613); test: Competition radioligand binding, mA2AAR; settings: mouse A2AAR, HEK-293 membranes, mean ± SEM; read-out: Affinity, Ki, A2A (m) (converted)
# T2 construct: expressed in transfected cells; host or cells: HEK-293
# Experimental: (§7) The affinity of the amine congeners and other antagonists was measured using standard radioligand binding assays for hA1, A2A and A3ARs (Table 1).[1],[13],[14],[22] Membranes of human embryonic kidney (HEK)293 cells expressing the AR of interest were used in the assay. Primary amine congeners 6a–6d containing spacers of 2–5 methylenes were similar in terms of hA2AAR affinity (Ki 6–9 nM), with the butylamino congener 6c displaying the highest A2AAR selectivity in the series. The affinity of this compound for the hA3AR was determined to be 6.0 μM, with only slightly higher hA1AR affinity. Homologation to 6 methylenes in compound 6e lowered A2AAR affinity. […] No dependence of the affinity on the chain length was evident when comparing AlexaFluor647 conjugates 9 and 10.
# (§8) Cell culture for membrane binding assays and flow cytometry: HEK-293 cells stably expressing the A2AAR were grown in Dulbecco’s Modified Eagle’s Medium (DMEM) with 10% FBS, 100 units/ml penicillin, […] streptomycin, 2 mM L-glutamine and 0.500 mg/mL G418 Sulfate (Geneticin). […]
# as §2, §3, §4, §5, §6
# mA3AR = target: T3, mA3AR (Mus musculus, UniProt Q61618); test: Competition radioligand binding, mA3AR; settings: for inhibition at 10 µM: mouse A3AR, percent inhibition at 10 μM, read-out: % inhib, A3 (m) (converted)
# T3 construct: expressed in transfected cells; host or cells: HEK-293
# T3 sequence (Q61618 1-319): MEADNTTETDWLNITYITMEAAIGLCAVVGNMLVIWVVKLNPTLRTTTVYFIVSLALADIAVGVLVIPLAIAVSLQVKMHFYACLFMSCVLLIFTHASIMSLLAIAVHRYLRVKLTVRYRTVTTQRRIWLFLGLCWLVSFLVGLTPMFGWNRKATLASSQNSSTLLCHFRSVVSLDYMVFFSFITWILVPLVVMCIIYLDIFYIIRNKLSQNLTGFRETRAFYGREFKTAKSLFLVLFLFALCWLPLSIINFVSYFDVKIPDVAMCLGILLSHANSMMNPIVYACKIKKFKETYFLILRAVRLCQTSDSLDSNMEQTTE
# Experimental: as §1, §2, §3, §4, §5, §6
# A1AR = target: T4, A1AR (Homo sapiens, UniProt P30542); test: Competition radioligand binding, hA1AR ([3H]DPCPX); settings: [3H]DPCPX 0.5 nM; for Ki: HEK-293 membranes, 1 h 25 °C, mean ± SEM, read-out: Affinity, Ki, A1
# T4 construct: expressed in transfected cells
# T4 sequence (P30542 1-326): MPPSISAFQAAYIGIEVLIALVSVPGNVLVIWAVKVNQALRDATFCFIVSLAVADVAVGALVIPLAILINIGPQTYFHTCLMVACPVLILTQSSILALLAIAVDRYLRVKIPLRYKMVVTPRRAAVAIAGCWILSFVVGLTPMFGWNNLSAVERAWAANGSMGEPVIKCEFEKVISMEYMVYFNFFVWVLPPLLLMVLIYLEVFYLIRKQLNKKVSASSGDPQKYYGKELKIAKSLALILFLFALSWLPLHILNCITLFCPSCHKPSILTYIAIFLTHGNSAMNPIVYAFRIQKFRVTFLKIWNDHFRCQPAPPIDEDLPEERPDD
# Experimental: as §1, §2, §3, §4, §5, §6
# A2AAR = target: T5, A2AAR (Homo sapiens, UniProt P29274); test: Competition radioligand binding, hA2AAR ([3H]ZM241385 or [3H]CGS21680); settings: for fold weaker A2AAR affinity with respect to the parent amino derivative 6c / Ki: human A2AAR; for Ki: HEK-293 membranes, [3H]ZM241385 1.0 nM, 1 h 25 °C, mean ± SEM, read-out: Affinity, Ki, A2A
# T5 construct: expressed in transfected cells
# Experimental: as §7
# Fig. 1 Antagonist radioligand ([^3H]2, 1.0 nM) binding inhibition curves for the hA2AAR for four antagonist fluorescent conjugates. Compound numbers: MRS7322 9, MRS7395 10, MRS7396 11 and MRS7416 12. Membranes from HEK-293 cells expressing the hA2AAR were used, and their incubation was performed for 1 h at 25 °C. Results are expressed as the mean ± SEM.
# as §8, §2, §3, §4, §5, §6
# T5 sequence (P29274 whole entry): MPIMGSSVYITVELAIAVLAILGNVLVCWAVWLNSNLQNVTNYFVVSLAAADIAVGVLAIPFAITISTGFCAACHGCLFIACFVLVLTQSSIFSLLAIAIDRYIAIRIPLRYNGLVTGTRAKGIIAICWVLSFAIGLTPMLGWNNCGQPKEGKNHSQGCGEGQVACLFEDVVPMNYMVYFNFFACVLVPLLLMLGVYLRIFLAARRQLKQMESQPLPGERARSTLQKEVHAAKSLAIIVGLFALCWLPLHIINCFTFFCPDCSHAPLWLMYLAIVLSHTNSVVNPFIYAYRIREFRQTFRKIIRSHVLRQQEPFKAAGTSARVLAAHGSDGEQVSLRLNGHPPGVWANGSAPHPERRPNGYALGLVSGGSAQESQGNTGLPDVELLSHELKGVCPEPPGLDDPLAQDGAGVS
# T2 sequence (Q60613 whole entry): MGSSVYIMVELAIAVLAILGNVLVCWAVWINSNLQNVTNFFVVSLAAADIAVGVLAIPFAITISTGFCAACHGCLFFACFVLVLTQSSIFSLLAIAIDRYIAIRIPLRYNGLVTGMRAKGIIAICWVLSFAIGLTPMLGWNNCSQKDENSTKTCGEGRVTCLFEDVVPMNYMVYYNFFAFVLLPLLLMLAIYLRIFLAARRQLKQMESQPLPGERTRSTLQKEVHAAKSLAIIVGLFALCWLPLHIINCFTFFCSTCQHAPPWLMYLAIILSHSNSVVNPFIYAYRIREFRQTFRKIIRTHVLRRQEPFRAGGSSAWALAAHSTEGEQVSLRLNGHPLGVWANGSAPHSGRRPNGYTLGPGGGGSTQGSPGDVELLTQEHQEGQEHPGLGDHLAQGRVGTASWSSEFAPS
inhibition at 10 µM (A3AR) [%],Ki (mA2AAR),inhibition at 10 µM (mA3AR) [%],inhibition at 10 µM (A1AR; percent inhibition at 10 μM) [%],fold weaker A2AAR affinity with respect to the parent amino derivative 6c (A2AAR) [fold],Ki (A2AAR) [µM],Ki (A1AR) [µM],"Ki (A3AR; HEK-293 membranes, 1 h 25 °C, mean ± SEM, read-out: Affinity, Ki, A3) [µM]",binding to the mA3AR (mA3AR; result in words),A2AAR selectivity compared to the hA1AR (A2AAR; hA2AAR vs hA1AR binding) [fold],A2AAR selectivity compared to the hA3AR (A2AAR; hA2AAR vs hA3AR binding) [fold],SMILES
33,0.0021 µM and 0.00209 µM,2,40,4,0.0246 ± 0.0176,,,,,,Nc1nc2c(cnn2CCCc2ccc(OCC(=O)NCCCCNC(=O)CCCCCNC(=O)COc3ccc(/C=C/C4=[N+]5C(=Cc6ccc(-c7cccs7)n6[B-]5(F)F)C=C4)cc3)cc2)c2nc(-c3ccco3)nn12 [compound 11]
32,0.585 µM,5,,4,0.0303 ± 0.0049,1.68 ± 0.47,,,,,CCN(CC)CC.CCN(CC)CC.N=c1ccc2c(-c3ccc(C(=O)NCCCCNC(=O)COc4ccc(CCCn5ncc6c5nc(N)n5nc(-c7ccco7)nc65)cc4)cc3C(=O)O)c3ccc(N)c(S(=O)(=O)O)c3oc-2c1S(=O)(=O)O [compound 12]
,0.0641 µM,4,,,0.0062,4.19 ± 0.75,2.66 ± 1.25,insignificant,671,426,N.Nc1nc2c(cnn2CCCc2ccc(OCc3ccc(S(=O)(=O)O)cc3)cc2)c2nc(-c3ccco3)nn12 [compound 13]
